Measurements from PMC11842588, “A first-in-class selective inhibitor of ERK1/2 and ERK5 overcomes drug resistance with a single-molecule strategy” (Signal Transduction and Targeted Therapy, 2025).
Like-named read-outs stand apart in the source and are kept apart here.

What was measured:
MDA-MB-231 xenograft = MDA-MB-231 xenograft tumor growth inhibition; type: in vivo, nude mice (BALB/c-nu); conditions: 50 mg/kg (each drug), intragastric once daily, 16 days, by tumor weight
Procedure: All procedures were performed in accordance with the Laboratory Animals Welfare Act, the Guide for the Care and Use of Laboratory Animals and the Guidelines and Policies. The rodent experiment was approved by IACUC (Institutional Animal Care and Use Committee) in the Experimental Animal Ethics Committee of West China Hospital (Approval No. 2021672A). 48 female nude mice (BALB/c-nu, 5 weeks, 15–18 g, purchased from Beijing HFK Bio-Technology Co., LTD) were acclimatized for one week in an SPF-grade animal facility (ventilated, 20–25 °C, 50–60% humidity). […] When the tumor volume reached approximately 100 mm^3 (V = L × W^2/2), the mice were randomly divided into six groups (n = 8 per group): (1) Control group (normal saline); (2) 25 mg/kg SKLB-D18-treated group; (3) 50 mg/kg SKLB-D18-treated group; (4) 50 mg/kg BVD-523-treated group; (5) 50 mg/kg XMD8-92-treated group; (6) BVD-523 (50 mg/kg) and XMD8-92 (50 mg/kg) combined treatment group. Drugs were freshly prepared with 5% DMSO, 10% Solutol HS-15, and 85% normal saline on the day of administration. Intragastric administration occurred once daily at the same time for 16 consecutive days. And the body weight and tumor volume of mice were measured every three days. After the administration period, all nude mice were euthanized by cervical dislocation the next day. Tumors and vital organs (heart, liver, spleen, lung, kidney) were dissected, and tumors were weighed, then immediately fixed in 4% paraformaldehyde or stored in −80 °C.

Pharmacokinetic study = type: in vivo; conditions: rat, plasma, SD rats; for Vd: SD, 1 mg/kg
Procedure: SKLB-D18 was formulated using a composition of 10% DMSO, 10% Solutol, and 80% (20% HP-β-CD). SKLB-D18 was administered via intravenous injection (1 mg/kg) and intragastric administration (10 mg/kg) on SD rats. At various time points post-administration (0.25 h, 0.5 h, 1 h, 2 h, 4 h, 6 h, 8 h, 24 h), blood samples (0.2 mL) were collected and centrifuged (6800 × g, 6 min, 2–8 °C) to separate plasma. Plasma samples were precipitated with methanol, vortexed, and centrifuged (18,000 × g, 4 °C, 7 min); the supernatant was analyzed using LC-MS/MS. Parameters such as AUC0-t, AUC0-∞, Cmax, Tmax, and T1/2 were calculated using Phoenix WinNonlin 7.0.

[1] = Plasma protein binding rate (ultrafiltration); type: in vitro ADME; conditions: SD rat plasma
Procedure: Appropriate amount of SD rat plasma was taken and incubated with the specified concentration of compound at 37 °C for a specified time, and unbound compound solution was obtained by ultrafiltration method, and acetonitrile-containing internal standard compound was added to terminate the reaction, and the remaining compound was quantized by LC-MS to calculate the plasma protein binding rate. Calculation formula: Plasma protein binding rate (%) = (Total blood−Ultrafiltrate)/Total blood * 100%.

380 kinases = test: Kinase profiling, whole panel; type: biochemical, human; conditions: 1 µM, panel of 380 kinases
Procedure: (§1) 380 kinases inhibitory activities of SKLB-D18 were conducted by Eurofins Cerep SA. The result was illustrated by kinase tree (http://www.kinhub.org/kinmap/).

CK1γ3(h) = target: T1, CK1γ3(h) (Homo sapiens, UniProt Q9Y6M4); test: Kinase profiling; type: biochemical
T1 construct: purchased Eurofins Cerep SA (KinaseProfiler)
Procedure: as §1

BTK(h) = target: T2, BTK(h) (Homo sapiens, UniProt Q06187); test: Kinase profiling; type: biochemical
T2 construct: purchased Eurofins Cerep SA (KinaseProfiler)
Procedure: as §1

Haspin(h) = target: T3, Haspin(h) (Homo sapiens, UniProt Q8TF76); test: Kinase profiling; type: biochemical
T3 construct: purchased Eurofins Cerep SA (KinaseProfiler)
Procedure: as §1

IRR(h) = target: T4, IRR(h) (Homo sapiens, UniProt P14616); test: Kinase profiling; type: biochemical
T4 construct: purchased Eurofins Cerep SA (KinaseProfiler)
Procedure: as §1

PKCζ(h) = target: T5, PKCζ(h) (Homo sapiens, UniProt Q05513); test: Kinase profiling; type: biochemical
T5 construct: purchased Eurofins Cerep SA (KinaseProfiler)
Procedure: as §1

PKCθ(h) = target: T6, PKCθ(h) (Homo sapiens, UniProt Q04759); test: Kinase profiling; type: biochemical
T6 construct: purchased Eurofins Cerep SA (KinaseProfiler)
Procedure: as §1

CDK5/p35(h) = target: T7, CDK5/p35(h) (Homo sapiens, UniProt Q00535); test: Kinase profiling; type: biochemical
T7 construct: purchased Eurofins Cerep SA (KinaseProfiler)
Procedure: as §1

RIPK1(h) = target: T8, RIPK1(h) (Homo sapiens, UniProt Q13546); test: Kinase profiling; type: biochemical
T8 construct: purchased Eurofins Cerep SA (KinaseProfiler)
Procedure: as §1

HIPK1(h) = target: T9, HIPK1(h) (Homo sapiens, UniProt Q86Z02); test: Kinase profiling; type: biochemical
T9 construct: purchased Eurofins Cerep SA (KinaseProfiler)
Procedure: as §1

PAK4(h) = target: T10, PAK4(h) (Homo sapiens, UniProt O96013); test: Kinase profiling; type: biochemical
T10 construct: purchased Eurofins Cerep SA (KinaseProfiler)
Procedure: as §1

EGFR(h) = target: T11, EGFR(h) (Homo sapiens, UniProt P00533); test: Kinase profiling; type: biochemical
T11 construct: purchased Eurofins Cerep SA (KinaseProfiler)
Procedure: as §1

CDK4/cyclinD3(h) = target: T12, CDK4/cyclinD3(h) (Homo sapiens, UniProt P11802); test: Kinase profiling; type: biochemical
T12 construct: purchased Eurofins Cerep SA (KinaseProfiler)
Procedure: as §1

Ron(h) = target: T13, Ron(h) (Homo sapiens, UniProt Q04912); test: Kinase profiling; type: biochemical
T13 construct: purchased Eurofins Cerep SA (KinaseProfiler)
Procedure: as §1

JNK3(h) = target: T14, JNK3(h) (Homo sapiens, UniProt P53779); test: Kinase profiling; type: biochemical
T14 construct: purchased Eurofins Cerep SA (KinaseProfiler)
Procedure: as §1

Rsk1(h) = target: T15, Rsk1(h) (Homo sapiens, UniProt Q15418); test: Kinase profiling; type: biochemical
T15 construct: purchased Eurofins Cerep SA (KinaseProfiler)
Procedure: as §1

Rse(h) = target: T16, Rse(h) (Homo sapiens, UniProt Q06418); test: Kinase profiling; type: biochemical
T16 construct: purchased Eurofins Cerep SA (KinaseProfiler)
Procedure: as §1

SIK(h) = target: T17, SIK(h) (Homo sapiens, UniProt P57059); test: Kinase profiling; type: biochemical
T17 construct: purchased Eurofins Cerep SA (KinaseProfiler)
Procedure: as §1

Fgr(h) = target: T18, Fgr(h) (Homo sapiens, UniProt P09769); test: Kinase profiling; type: biochemical
T18 construct: purchased Eurofins Cerep SA (KinaseProfiler)
Procedure: as §1

Fms(h) = target: T19, Fms(h) (Homo sapiens, UniProt P07333); test: Kinase profiling; type: biochemical
T19 construct: purchased Eurofins Cerep SA (KinaseProfiler)
Procedure: as §1

T18 sequence (P09769 whole entry): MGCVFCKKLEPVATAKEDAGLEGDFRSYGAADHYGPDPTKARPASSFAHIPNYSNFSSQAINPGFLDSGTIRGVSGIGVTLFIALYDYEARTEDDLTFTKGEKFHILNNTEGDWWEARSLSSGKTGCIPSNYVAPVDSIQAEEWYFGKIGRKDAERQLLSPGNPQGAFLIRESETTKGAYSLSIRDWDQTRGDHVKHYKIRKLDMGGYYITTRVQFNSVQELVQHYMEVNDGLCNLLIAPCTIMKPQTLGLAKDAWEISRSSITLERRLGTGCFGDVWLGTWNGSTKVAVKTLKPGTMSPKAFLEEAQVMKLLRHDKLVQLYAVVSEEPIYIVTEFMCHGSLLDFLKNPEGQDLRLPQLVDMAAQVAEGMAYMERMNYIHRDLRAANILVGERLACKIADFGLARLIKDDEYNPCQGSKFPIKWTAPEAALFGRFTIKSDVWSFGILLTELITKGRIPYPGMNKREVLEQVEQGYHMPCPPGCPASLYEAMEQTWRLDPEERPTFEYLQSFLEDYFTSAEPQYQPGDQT
T10 sequence (O96013 whole entry): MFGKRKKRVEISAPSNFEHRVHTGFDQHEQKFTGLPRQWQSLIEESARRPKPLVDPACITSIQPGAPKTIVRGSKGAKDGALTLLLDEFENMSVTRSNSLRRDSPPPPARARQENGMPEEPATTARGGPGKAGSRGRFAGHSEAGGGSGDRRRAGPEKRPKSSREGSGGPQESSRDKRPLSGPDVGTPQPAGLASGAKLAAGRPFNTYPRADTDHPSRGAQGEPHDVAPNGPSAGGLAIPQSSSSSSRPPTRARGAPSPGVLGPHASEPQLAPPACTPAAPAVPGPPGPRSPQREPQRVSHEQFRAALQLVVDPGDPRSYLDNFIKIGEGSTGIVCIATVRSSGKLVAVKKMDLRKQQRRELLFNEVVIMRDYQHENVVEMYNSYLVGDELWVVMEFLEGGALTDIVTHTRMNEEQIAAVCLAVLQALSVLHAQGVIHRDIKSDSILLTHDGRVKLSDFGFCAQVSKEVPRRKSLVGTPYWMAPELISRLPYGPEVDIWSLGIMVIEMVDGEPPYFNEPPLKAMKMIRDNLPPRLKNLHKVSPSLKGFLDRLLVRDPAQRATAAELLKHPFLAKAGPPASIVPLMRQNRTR
T11 sequence (P00533 25-1210): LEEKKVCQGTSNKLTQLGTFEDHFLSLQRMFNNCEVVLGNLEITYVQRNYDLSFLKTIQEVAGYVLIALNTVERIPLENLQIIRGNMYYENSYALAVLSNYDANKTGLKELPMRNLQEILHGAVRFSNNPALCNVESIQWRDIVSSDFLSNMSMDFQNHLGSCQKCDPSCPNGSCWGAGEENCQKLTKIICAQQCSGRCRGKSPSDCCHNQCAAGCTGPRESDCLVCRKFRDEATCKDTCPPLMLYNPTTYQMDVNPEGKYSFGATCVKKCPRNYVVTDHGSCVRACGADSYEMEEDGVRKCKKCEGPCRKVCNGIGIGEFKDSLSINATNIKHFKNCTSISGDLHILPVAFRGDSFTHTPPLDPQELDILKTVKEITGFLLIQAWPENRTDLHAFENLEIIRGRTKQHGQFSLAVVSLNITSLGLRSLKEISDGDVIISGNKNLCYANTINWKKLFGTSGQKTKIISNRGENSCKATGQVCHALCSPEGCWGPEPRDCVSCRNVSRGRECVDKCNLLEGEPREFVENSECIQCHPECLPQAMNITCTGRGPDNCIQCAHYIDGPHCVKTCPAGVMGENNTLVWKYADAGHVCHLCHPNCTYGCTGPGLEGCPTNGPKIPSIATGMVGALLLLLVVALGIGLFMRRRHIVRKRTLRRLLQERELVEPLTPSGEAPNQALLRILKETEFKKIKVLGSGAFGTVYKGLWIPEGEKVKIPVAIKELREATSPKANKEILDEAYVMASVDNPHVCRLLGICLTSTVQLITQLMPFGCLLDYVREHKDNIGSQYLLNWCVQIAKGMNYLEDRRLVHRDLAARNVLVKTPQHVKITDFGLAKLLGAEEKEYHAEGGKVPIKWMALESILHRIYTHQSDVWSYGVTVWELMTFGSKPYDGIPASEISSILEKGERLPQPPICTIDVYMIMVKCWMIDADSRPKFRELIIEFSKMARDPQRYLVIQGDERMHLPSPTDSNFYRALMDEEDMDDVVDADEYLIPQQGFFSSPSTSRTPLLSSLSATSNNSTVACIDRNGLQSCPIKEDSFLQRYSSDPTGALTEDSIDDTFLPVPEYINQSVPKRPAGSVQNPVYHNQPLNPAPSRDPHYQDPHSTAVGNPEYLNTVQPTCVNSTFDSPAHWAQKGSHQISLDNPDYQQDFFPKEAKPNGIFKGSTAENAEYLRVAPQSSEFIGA
T12 sequence (P11802 whole entry): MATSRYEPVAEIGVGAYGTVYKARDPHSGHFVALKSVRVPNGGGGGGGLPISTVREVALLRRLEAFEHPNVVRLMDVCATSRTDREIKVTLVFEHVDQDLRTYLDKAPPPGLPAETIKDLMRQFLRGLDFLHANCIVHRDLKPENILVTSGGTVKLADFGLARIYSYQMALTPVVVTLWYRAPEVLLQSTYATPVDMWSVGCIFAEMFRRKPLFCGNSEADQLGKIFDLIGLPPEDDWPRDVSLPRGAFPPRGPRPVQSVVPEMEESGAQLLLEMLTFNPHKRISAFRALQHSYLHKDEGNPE
T12 sequence (P30281 whole entry partner): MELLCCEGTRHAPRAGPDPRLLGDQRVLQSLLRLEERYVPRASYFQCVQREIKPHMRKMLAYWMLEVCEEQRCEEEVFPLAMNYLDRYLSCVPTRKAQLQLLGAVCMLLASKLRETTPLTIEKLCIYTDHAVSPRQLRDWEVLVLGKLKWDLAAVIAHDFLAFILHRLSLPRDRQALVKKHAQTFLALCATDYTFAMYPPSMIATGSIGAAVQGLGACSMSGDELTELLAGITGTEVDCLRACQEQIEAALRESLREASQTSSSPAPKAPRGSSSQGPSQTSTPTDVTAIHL
T17 sequence (P57059 whole entry): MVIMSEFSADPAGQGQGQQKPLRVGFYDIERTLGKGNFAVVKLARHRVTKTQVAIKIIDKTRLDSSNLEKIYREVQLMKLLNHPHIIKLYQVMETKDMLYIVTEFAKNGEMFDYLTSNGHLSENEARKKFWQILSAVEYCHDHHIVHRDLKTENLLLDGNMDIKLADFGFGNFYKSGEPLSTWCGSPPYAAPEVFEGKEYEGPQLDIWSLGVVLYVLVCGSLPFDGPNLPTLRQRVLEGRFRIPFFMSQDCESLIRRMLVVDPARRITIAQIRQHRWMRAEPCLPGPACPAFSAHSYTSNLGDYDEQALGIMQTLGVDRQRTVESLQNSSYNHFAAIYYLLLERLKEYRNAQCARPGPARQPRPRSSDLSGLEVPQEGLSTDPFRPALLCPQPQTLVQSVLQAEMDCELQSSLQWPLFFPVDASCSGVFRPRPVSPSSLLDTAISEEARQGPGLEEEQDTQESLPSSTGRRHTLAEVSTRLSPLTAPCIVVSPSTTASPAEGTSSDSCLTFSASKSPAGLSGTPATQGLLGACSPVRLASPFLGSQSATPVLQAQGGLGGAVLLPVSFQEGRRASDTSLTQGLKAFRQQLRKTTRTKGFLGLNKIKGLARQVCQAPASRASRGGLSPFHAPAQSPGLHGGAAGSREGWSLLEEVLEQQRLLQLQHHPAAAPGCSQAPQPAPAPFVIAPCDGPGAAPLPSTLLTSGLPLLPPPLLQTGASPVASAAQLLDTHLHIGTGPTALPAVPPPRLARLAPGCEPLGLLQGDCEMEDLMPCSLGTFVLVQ
T7 sequence (Q00535 whole entry): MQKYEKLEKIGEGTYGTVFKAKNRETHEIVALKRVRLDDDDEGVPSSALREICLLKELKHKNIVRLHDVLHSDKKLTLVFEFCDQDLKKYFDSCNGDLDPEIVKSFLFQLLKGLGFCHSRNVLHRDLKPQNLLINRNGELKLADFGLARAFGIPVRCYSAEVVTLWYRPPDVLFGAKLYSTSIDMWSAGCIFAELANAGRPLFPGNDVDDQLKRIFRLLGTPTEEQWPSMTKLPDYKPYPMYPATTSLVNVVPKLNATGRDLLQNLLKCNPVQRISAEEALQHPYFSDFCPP
T7 sequence (Q15078 whole entry partner): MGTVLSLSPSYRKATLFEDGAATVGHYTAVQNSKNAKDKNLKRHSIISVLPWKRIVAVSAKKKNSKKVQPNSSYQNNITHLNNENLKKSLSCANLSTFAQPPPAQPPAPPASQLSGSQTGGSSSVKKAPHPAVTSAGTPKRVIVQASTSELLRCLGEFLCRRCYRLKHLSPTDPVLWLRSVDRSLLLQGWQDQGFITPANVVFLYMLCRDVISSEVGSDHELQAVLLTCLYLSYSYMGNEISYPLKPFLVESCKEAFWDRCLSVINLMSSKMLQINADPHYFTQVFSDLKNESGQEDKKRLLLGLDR
T5 sequence (Q05513 whole entry): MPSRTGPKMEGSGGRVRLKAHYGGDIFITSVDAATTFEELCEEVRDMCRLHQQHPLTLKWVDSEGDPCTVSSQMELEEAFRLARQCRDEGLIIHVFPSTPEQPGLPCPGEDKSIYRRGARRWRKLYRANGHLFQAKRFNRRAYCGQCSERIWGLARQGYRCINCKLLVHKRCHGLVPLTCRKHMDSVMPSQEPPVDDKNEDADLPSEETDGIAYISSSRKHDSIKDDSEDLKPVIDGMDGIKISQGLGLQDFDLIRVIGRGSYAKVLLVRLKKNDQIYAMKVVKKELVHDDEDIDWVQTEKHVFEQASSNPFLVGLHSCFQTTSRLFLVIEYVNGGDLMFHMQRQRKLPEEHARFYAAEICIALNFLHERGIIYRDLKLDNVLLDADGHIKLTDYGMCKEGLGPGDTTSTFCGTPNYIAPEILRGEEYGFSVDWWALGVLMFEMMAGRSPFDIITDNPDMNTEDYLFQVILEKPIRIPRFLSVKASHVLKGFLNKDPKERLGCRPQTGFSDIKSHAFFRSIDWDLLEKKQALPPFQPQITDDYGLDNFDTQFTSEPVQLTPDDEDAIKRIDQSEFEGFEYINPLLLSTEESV

For `CN(C)Cc1cccc(Nc2ncc(Cl)c(-c3csc(C(=O)NN4CCOCC4)c3)n2)c1` [SKLB-D18, 4-(5-chloro-2-((3-((dimethylamino)methyl)phenyl)amino)pyrimidin-4-yl)-N-morpholinothiophene-2-carboxamide], the tumor inhibition rate (MDA-MB-231 xenograft) was 79.88%, the Vd (Pharmacokinetic study; iv, i.v. 1 mg/kg, read-out: Vss) was 17 ± 0.568 L/kg and the Vd (Pharmacokinetic study; iv, i.v. 1 mg/kg, read-out: Vz) was 20.2 ± 1.38 L/kg. The AUC(0-inf) (Pharmacokinetic study; iv, i.v. 1 mg/kg) was 143 ± 6.6 ng·h/mL, the AUC(0-t) (Pharmacokinetic study; iv, i.v. 1 mg/kg) was 136 ± 5.73 ng·h/mL and the Cmax (Pharmacokinetic study; iv, i.v. 1 mg/kg) was 58.7 ± 7.22 ng/mL. It also gave a half-life (Pharmacokinetic study; iv, i.v. 1 mg/kg) of 121 ± 9.6 min, a clearance (Pharmacokinetic study; iv, i.v. 1 mg/kg, read-out: CL (mL/(min·kg))) of 117 ± 5.45 mL/min/kg and a bioavailability (Pharmacokinetic study; oral, p.o. 10 mg/kg vs i.v. 1 mg/kg) of 22.4%. For the same molecule, the AUC(0-inf) (Pharmacokinetic study; po, p.o. 10 mg/kg) was 457 ng·h/mL, the AUC(0-t) (Pharmacokinetic study; po, p.o. 10 mg/kg) was 304 ng·h/mL and the Cmax (Pharmacokinetic study; po, p.o. 10 mg/kg) was 53.7 ng/mL. For the same molecule, the half-life (Pharmacokinetic study; po, p.o. 10 mg/kg) was 223 min, the fraction unbound [1] was 0.816 and the “number of protein kinases outside of ERK1/2/5 inhibited by >70%” value (380 kinases) was 8. It also gave an inhibition at 1 µM (CK1γ3(h)) of 14%, an inhibition at 1 µM (BTK(h)) of 8% and an inhibition at 1 µM (Haspin(h)) of 12%. It also gave an inhibition at 1 µM (IRR(h)) of 57%, an inhibition at 1 µM (PKCζ(h)) of -15% and an inhibition at 1 µM (PKCθ(h)) of 7%. It also gave an inhibition at 1 µM (CDK5/p35(h)) of 57%, an inhibition at 1 µM (RIPK1(h)) of 9% and an inhibition at 1 µM (HIPK1(h)) of 68%. For the same molecule, the inhibition at 1 µM (PAK4(h)) was 21%, the inhibition at 1 µM (EGFR(h)) was -10% and the inhibition at 1 µM (CDK4/cyclinD3(h)) was 60%. The inhibition at 1 µM (Ron(h)) was 58%, the inhibition at 1 µM (JNK3(h)) was 66% and the inhibition at 1 µM (Rsk1(h)) was 51%. The inhibition at 1 µM (Rse(h)) was 12%, the inhibition at 1 µM (SIK(h)) was 26% and the inhibition at 1 µM (Fgr(h)) was 42%. It also gave an inhibition at 1 µM (Fms(h)) of 34%.
